# What was measured:
# Design in all cases: species or system S. pombe
# [1] = system: Seb1 SUMO-RRM388-540 R472E; assay: FA, SUMO-RRM R472E binding to RNA; conditions: SUMO-RRM388-540 R472E vs WT (Fig. 3e)
# Method: (§1) Recombinant WT and mutated RRM388−540 of Seb1 with an N-terminal His6-SUMO tag were expressed from modified pOPINS3C expression vector[69] in pLysS E. coli strain. For FA assays, protein eluted from NiNTA was further purified on a HiLoad 16/60 Superdex 200 prep grade column (GE Healthcare) using an ÄKTA purifier (GE Healthcare) in 50 mM Tris pH 8.0 and 200 mM NaCl, and fractions containing the Seb1-RRM388−540 concentrated to ∼5 mg ml^−1. For crystallization and SAXS, the NiNTA eluted fractions were buffer exchanged into 50 mM Tris pH 7.5, 300 mM NaCl and 500 mM NDSB-201 using a PD-10 column (GE Healthcare) and cleaved with 3C protease (Sigma-Aldrich) at room temperature overnight. […]
# (§2) For Seb1-CID1–152, binding to 75 nM of two-repeat CTD peptides containing an N-terminal 5′-fluorescein amidite (FAM)-tag (Peptides&elephants, Potsdam, Germany) was determined in 25 mM HEPES pH 7.3, 200 mM NaCl and 1 mM EDTA. For RRM388–540, binding was determined to 40 nM FAM-AUUAGUAAAA RNA (Eurofins) in 25 mM Tris-HCl pH 8.0, 100 mM NaCl, 2 mM MgCl2, 1 mM DTT, 16.7% (v/v) glycerol, 0.1% IGEPAL, 0.1 mg ml^−1 tRNA and 2.5% (v/v) RNasin (Promega). Excitation of the ligand was performed with linearly polarized light at 485 nm and emission was measured at 520 nm in parallel and perpendicular planes to the emission plane at 25 °C using a FLUOstar-Omega microplate reader (BMG-Labtech). […]
# [2] = system: Seb1 SUMO-RRM388-540 F487A; assay: FA, SUMO-RRM F487A binding to RNA; conditions: SUMO-RRM388-540 F487A vs WT (Fig. 3e)
# Method: as §1, §2
# [3] = system: Seb1 SUMO-RRM388-540 S492A; assay: FA, SUMO-RRM S492A binding to RNA; conditions: SUMO-RRM388-540 S492A vs WT (Fig. 3e)
# Method: as §1, §2
# [4] = system: Seb1 SUMO-RRM388-540 F445A; assay: FA, SUMO-RRM F445A binding to RNA; conditions: for effect on RNA binding, F445A: FA, SUMO-RRM388-540 F445A vs WT (Fig. 3e)
# Method: Recombinant WT and mutated RRM388−540 of Seb1 with an N-terminal His6-SUMO tag were expressed from modified pOPINS3C expression vector[69] in pLysS E. coli strain. For FA assays, protein eluted from NiNTA was further purified on a HiLoad 16/60 Superdex 200 prep grade column (GE Healthcare) using an ÄKTA purifier (GE Healthcare) in 50 mM Tris pH 8.0 and 200 mM NaCl, and fractions containing the Seb1-RRM388−540 concentrated to ∼5 mg ml^−1. For crystallization and SAXS, the NiNTA eluted fractions were buffer exchanged into 50 mM Tris pH 7.5, 300 mM NaCl and 500 mM NDSB-201 using a PD-10 column (GE Healthcare) and cleaved with 3C protease (Sigma-Aldrich) at room temperature overnight. His6-SUMO tag was removed using NiNTA beads and the cleaved RRM388−540 was further purified on a Superdex 75 10/100 GL column (GE Healthcare) in 20 mM HEPES pH 7.3, 150 mM NaCl and 500 mM NDSB-201. For crystallization trials, the eluted protein was concentrated to ∼8.7 mg ml^−1, for SAXS to ∼5 mg ml^−1.
# For Seb1-CID1–152, binding to 75 nM of two-repeat CTD peptides containing an N-terminal 5′-fluorescein amidite (FAM)-tag (Peptides&elephants, Potsdam, Germany) was determined in 25 mM HEPES pH 7.3, 200 mM NaCl and 1 mM EDTA. For RRM388–540, binding was determined to 40 nM FAM-AUUAGUAAAA RNA (Eurofins) in 25 mM Tris-HCl pH 8.0, 100 mM NaCl, 2 mM MgCl2, 1 mM DTT, 16.7% (v/v) glycerol, 0.1% IGEPAL, 0.1 mg ml^−1 tRNA and 2.5% (v/v) RNasin (Promega). Excitation of the ligand was performed with linearly polarized light at 485 nm and emission was measured at 520 nm in parallel and perpendicular planes to the emission plane at 25 °C using a FLUOstar-Omega microplate reader (BMG-Labtech). All measurements were performed in at least duplicates, results were plotted against the protein concentration and Kd values were determined via curve fitting as described in ref. [70].
sequence,measurement,setting,value
AUUAGUAAAA (chemistry not fully specified) [RNA: AUUAGUAAAA],"effect on RNA binding, R472E",[1],completely abolishes RNA binding
same,"effect on affinity to RNA, F487A",[2],severely reduces the affinity to RNA
same,"effect on RNA binding, S492A",[3],only a mild effect on binding
same,"effect on RNA binding, F445A",[4]; listed as FAM-labelled 10 nt-RNA,completely abolishes RNA binding
same,"effect on RNA binding, F445A",[4]; listed as RNA,abolishes the interaction completely
same,Kd,"[4]; fluorescence anisotropy, SUMO-RRM F445A, 40 nM FAM-RNA, Tris-HCl pH 8.0, 100 mM NaCl, 2 mM MgCl2, 25 °C, three technical replicates",> 1000 µM

# Reference: paper PMC5382271, “The conserved protein Seb1 drives transcription termination by binding RNA polymerase II and nascent RNA” (Nature Communications, 2017)
